From patent US6677431B2, “Design, preparation, and properties of antibacterial β-peptides” (The Trustees of the University of Pennsylvania, priority 1999, dated 2004)
Read-outs that look alike come from different tables or passages of the source. No end group written: not given here.

Columns and labels:
[1] = tested on: K91 E. coli; assay type: cell-based; conditions: K91, 9 h, pH 7.4
Method: (§1) The biological activities of these peptides were measured using human erythrocytes and E. coli as models for mammalian and bacterial cells, respectively. Hemolysis was monitored in 10 mM Tris, 150 mM NaCl, pH 7.0, while the bacterial assay was conducted in minimal media M9 (Table 1); both of these solutions are sufficiently transparent to allow CD and ultracentrifugation measurements (supplementary material). Under the assay conditions, the peptides gave CD spectra similar to those in Tris buffer, with the exception of H-(β^3-HLeu-β^3-HLys-β^3-HLeu)n-OH, n=5 and 6.
Antibacterial assay was performed by incubation of K 91 E. coli and peptide of different concentrations in minimal media, at pH 7.4. The peptide solution (50 μL) and K 91 E. coli culture (20 μL, grown in minimal media for 24 hr-36 hr) were mixed with 1 mL minimal media. […] The peptide dose required for 50% suppress of bacterial growth was obtained from the smooth fitted OD600 vs. log[peptide] curve.
(§2) The activity and selectivity of peptide 1 and peptide 2 were examined by antibacterial assay and hemolysis experiments. E. Coli and human erythrotytes (RBC) were used as models for bacterial cell and mammalian cell, respectively. The peptide concentration required for 50% bacterial growth suppression (IC50), and peptide concentration required for 50% RBC lysis (HD50) are listed in Table 3. […] The antibacterial activities of peptide 1 and peptide 2 are about the same except peptide 2 has slightly lower IC50. Similar trend has been observed in the previous study, that longer peptide tends to have higher activity. However, the difference in IC50 is much smaller for this series of peptide than the previously studied ones. Antibacterial peptide with good selectivity is usually represented by its low hemolysis ability. […] The HD50 is 670 μM for peptide 1 and 240 μM for peptide 2, which gives a selectivity of 111 for peptide 1 and 60 for peptide 2.

[2] = Hemolysis assay, 50% lysis of RBC's; assay type: cell-based, human; conditions: 0.25% suspension of human erythrocytes (RBCs)
Method: as §1
(§3) ∇in M9 medium (data from Hamuro et al., ref. 5) # In M9 medium.+Hemolysis experiments were performed by incubating a 0.25% suspension of human RBc's in 10 mM Tris buffer containing […] at pH 7.0 with varying amounts of peptide. The hemolytic dose required to lyse 50% of the RBC's is reported as the HD50.
(§4) Hemolysis experiments were carried out by incubating 0.25% suspension of human erythrocytes (RBC's) with peptides of different concentrations in 150 mM sodium choloride, 10 mM Tris buffer, pH 7.0. The sample was prepared by combining 400 μL of the RBC suspension and […] of the peptide solution. After incubated the sample at 37— C. for 1 hour, the sample was centrifuged at 14,000 rpm for 5 min, and the OD414 of the supernatant was measured. Mellitin (50 μM) was used to get 100% hemolysis. The hemolytic IC50 was obtained by plotting hemolysis percentage vis. peptide concentration, and the concentration required for 50% hemolysis was determined from the smooth curve-fitted graph.
as §2

[3] = tested on: human erythrocytes (RBC's); experiment: Hemolysis assay, 50% lysis of RBC's; assay type: cell-based; conditions: pH 7
Method: as §1, §3, §4, §2

[4] = In LB medium (data from Oh et al.); cited from earlier work
[5] = tested on: osmY-lux fusion; experiment: Stress-induced response assay, induction of osmY-lux fusion; assay type: cell-based; conditions: Table 4; stress sensed osmotic shock
Method: (§5) Stress-induced response and growth inhibition assays were carried out on samples of four of the β-peptide and compared to known polycationic peptides.
(§6) Polymyxin B was tested both rich, LB, medium and defined, M9, medium. The other natural peptides were tested in LB medium.
(§7) The β-peptides were tested in M9 medium. * In LB medium (data from Oh et al. Biochem. Biophys. Acta. 2000,1463: 43-54)
(§8) However, similar to the magainins, no induction of the micF-lux fusion was observed. Also, the minimum inhibitory concentrations (MIC's) were determined to be higher than those reported in the published manuscript.
(§9) Samples of these β-peptides 1 and 2 were evaluated in the stress-induced response assays.
(§10) The biolumenescence data result from test carried out according to U.S. Pat. No. 5,683,868, Highly Sensitive Method For Detecting Environmental Insults, issued Nov. 4, 1997 to LaRossa et al., the entire contents of the disclosure of are hereby incorporated by reference, The tests described in this patent permit antibacterial properties of peptides or any other materials to be assessed. […] Along these lines, FIG. 5 illustrates a relationship between relative light units and minutes of exposure of bacteria to the various materials in the legend. P×B represents polymyxin, a known antibacterial material. In the graph, a decrease in RULs corresponds to a decrease in bacteria. […]

[6] = tested on: micF-lux fusion; experiment: Stress-induced response assay, induction of micF-lux fusion; assay type: cell-based; conditions: Table 4; regulatory gene Rob
Method: as §5, §6, §7, §8, §9, §10

Row | Molecule | IC50 [1] [µM] | HC50 at 1 h ([2]; human, pH 7) [µM] | MIC* [4] [µM] | also measured
1 | CC(C)C[C@@H](CC(=O)O)NC(=O)C[C@H](CCCCN)NC(=O)C[C@@H](NC(=O)C[C@H](CC(C)C)NC(=O)C[C@H](CCCCN)NC(=O)C[C@@H](NC(=O)OCC1c2ccccc2-c2ccccc21)C(C)C)C(C)C [Fmoc-(β^3-HVal-β^3-HLys-β^3-HLeu)2-OH, Fmoc-(b^3-HVal-b^3-HLys-b^3-HLeu)2-OH] | > 100 | > 100 |  | 
2 | CC(C)C[C@@H](CC(=O)O)NC(=O)C[C@H](CCCCN)NC(=O)C[C@@H](NC(=O)C[C@H](CC(C)C)NC(=O)C[C@H](CCCCN)NC(=O)C[C@@H](NC(=O)C[C@H](CC(C)C)NC(=O)C[C@H](CCCCN)NC(=O)C[C@@H](NC(=O)OCC1c2ccccc2-c2ccccc21)C(C)C)C(C)C)C(C)C [Fmoc-(β^3-HVal-β^3-HLys-β^3-HLeu)3-OH, Fmoc-(b^3-HVal-b^3-HLys-b^3-HLeu)3-OH] | 15 | 6.3 |  | HD50+ [3]: 6.3 µM
3 | CC(C)C[C@@H](CC(=O)O)NC(=O)C[C@H](CCCCN)NC(=O)C[C@@H](NC(=O)C[C@H](CC(C)C)NC(=O)C[C@H](CCCCN)NC(=O)C[C@@H](NC(=O)C[C@H](CC(C)C)NC(=O)C[C@H](CCCCN)NC(=O)C[C@@H](NC(=O)C[C@H](CC(C)C)NC(=O)C[C@H](CCCCN)NC(=O)C[C@@H](NC(=O)OCC1c2ccccc2-c2ccccc21)C(C)C)C(C)C)C(C)C)C(C)C [Fmoc-(β^3-HVal-β^3-HLys-β^3-HLeu)4-OH, Fmoc-(b^3-HVal-b^3-HLys-b^3-HLeu)4-OH] | 1.5 | 0.31 |  | 
4 | CC(C)C[C@H](N)CC(=O)N[C@@H](CCCCN)CC(=O)N[C@H](CC(=O)N[C@H](CC(=O)N[C@@H](CCCCN)CC(=O)N[C@H](CC(=O)O)CC(C)C)CC(C)C)CC(C)C [H-(β^3-HLeu-β^3-HLys-β^3-HLeu)2-OH, H-(b^3-HLeu-b^3-HLys-b^3-HLeu)2-OH] | > 100 | > 100 |  | 
5 | CC(C)C[C@H](N)CC(=O)N[C@@H](CCCCN)CC(=O)N[C@H](CC(=O)N[C@H](CC(=O)N[C@@H](CCCCN)CC(=O)N[C@H](CC(=O)N[C@H](CC(=O)N[C@@H](CCCCN)CC(=O)N[C@H](CC(=O)O)CC(C)C)CC(C)C)CC(C)C)CC(C)C)CC(C)C [H-(β^3-HLeu-β^3-HLys-β^3-HLeu)3-OH, H-(b^3-HLeu-b^3-HLys-b^3-HLeu)3-OH] | 35 | > 100 |  | 
6 | CC(C)C[C@H](N)CC(=O)N[C@@H](CCCCN)CC(=O)N[C@H](CC(=O)N[C@H](CC(=O)N[C@@H](CCCCN)CC(=O)N[C@H](CC(=O)N[C@H](CC(=O)N[C@@H](CCCCN)CC(=O)N[C@H](CC(=O)N[C@H](CC(=O)N[C@@H](CCCCN)CC(=O)N[C@H](CC(=O)O)CC(C)C)CC(C)C)CC(C)C)CC(C)C)CC(C)C)CC(C)C)CC(C)C [H-(β^3-HLeu-β^3-HLys-β^3-HLeu)4-OH, H-(b^3-HLeu-b^3-HLys-b^3-HLeu)4-OH] | 1.7 | 2.6 |  | HD50+ [3]: 2.6 µM
7 | CC(C)C[C@H](N)CC(=O)N[C@@H](CCCCN)CC(=O)N[C@H](CC(=O)N[C@H](CC(=O)N[C@@H](CCCCN)CC(=O)N[C@H](CC(=O)N[C@H](CC(=O)N[C@@H](CCCCN)CC(=O)N[C@H](CC(=O)N[C@H](CC(=O)N[C@@H](CCCCN)CC(=O)N[C@H](CC(=O)N[C@H](CC(=O)N[C@@H](CCCCN)CC(=O)N[C@H](CC(=O)O)CC(C)C)CC(C)C)CC(C)C)CC(C)C)CC(C)C)CC(C)C)CC(C)C)CC(C)C)CC(C)C [H-(β^3-HLeu-β^3-HLys-β^3-HLeu)5-OH, H-(b^3-HLeu-b^3-HLys-b^3-HLeu)5-OH] |  | 0.23 |  | HD50+ [3]: 0.23 µM
8 | CC(C)C[C@H](N)CC(=O)N[C@@H](CCCCN)CC(=O)N[C@H](CC(=O)N[C@H](CC(=O)N[C@@H](CCCCN)CC(=O)N[C@H](CC(=O)N[C@H](CC(=O)N[C@@H](CCCCN)CC(=O)N[C@H](CC(=O)N[C@H](CC(=O)N[C@@H](CCCCN)CC(=O)N[C@H](CC(=O)N[C@H](CC(=O)N[C@@H](CCCCN)CC(=O)N[C@H](CC(=O)N[C@H](CC(=O)N[C@@H](CCCCN)CC(=O)N[C@H](CC(=O)O)CC(C)C)CC(C)C)CC(C)C)CC(C)C)CC(C)C)CC(C)C)CC(C)C)CC(C)C)CC(C)C)CC(C)C)CC(C)C [H-(β^3-HLeu-β^3-HLys-β^3-HLeu)6-OH, H-(b^3-HLeu-b^3-HLys-b^3-HLeu)6-OH] |  | 0.081 |  | HD50+ [3]: 0.081
9 | CC(C)C[C@@H](CC(=O)O)NC(=O)C[C@H](CCCCN)NC(=O)C[C@@H](NC(=O)C[C@H](CC(C)C)NC(=O)C[C@H](CCCCN)NC(=O)C[C@@H](N)C(C)C)C(C)C [H-(β^3-HVal-β^3-HLys-β^3-HLeu)2-OH, H-(b^3-HVal-b^3-HLys-b^3-HLeu)2-OH] | > 100 | > 100 |  | 
10 | CC(C)C[C@@H](CC(=O)O)NC(=O)C[C@H](CCCCN)NC(=O)C[C@@H](NC(=O)C[C@H](CC(C)C)NC(=O)C[C@H](CCCCN)NC(=O)C[C@@H](NC(=O)C[C@H](CC(C)C)NC(=O)C[C@H](CCCCN)NC(=O)C[C@@H](N)C(C)C)C(C)C)C(C)C [H-(β^3-HVal-β^3-HLys-β^3-HLeu)3-OH, H-(b^3-HVal-b^3-HLys-b^3-HLeu)3-OH] | 41 |  |  | HC50 at 1 h ([2]; 0.25% human erythrocytes, 10 mM Tris, 150 mM NaCl, pH 7.0, 1 h at 37° C., read-out: Hemolysis HD50): 86 µM
11 | CC(C)C[C@@H](CC(=O)O)NC(=O)C[C@H](CCCCN)NC(=O)C[C@@H](NC(=O)C[C@H](CC(C)C)NC(=O)C[C@H](CCCCN)NC(=O)C[C@@H](NC(=O)C[C@H](CC(C)C)NC(=O)C[C@H](CCCCN)NC(=O)C[C@@H](NC(=O)C[C@H](CC(C)C)NC(=O)C[C@H](CCCCN)NC(=O)C[C@@H](N)C(C)C)C(C)C)C(C)C)C(C)C [H-(β^3-HVal-β^3-HLys-β^3-HLeu)4-OH, H-(b^3-HVal-b^3-HLys-b^3-HLeu)4-OH] | 2.1 | 4.2 |  | 
12 | Cecropin A (KWKLFKKIEKVGQNIRDGIIKAGPAVAVVGQATQIAK; ends and bridges not checked; UniProt P01507 27-63, looked up) [known polycationic natural peptide] |  |  | 0.1 | 
13 | Cecropin B (KWKVFKKIEKMGRNIRNGIVKAGPAIAVLGEAKAL; ends and bridges not checked; UniProt P01508 27-61, looked up) [known polycationic natural peptide] |  |  | 0.1 | 
14 | Magainin 1 (GIGKFLHSAGKFGKAFVGEIMKS; Magainin-1; UniProt P11006 37-59, looked up) [known polycationic natural peptide (frog skin)] |  |  | 12 | 
15 | Magainin 2 |  |  | 5 | 
16 | Polymyxin B |  |  | 0.2 | 
17 | Polymyxin E |  |  | 0.15 | 
18 | Polymyxin [reference compound] |  |  |  | osmY gene fusion response [5]: yes; micF gene fusion response [6]: yes
